From patent US11498920B2, “4-(1H-imidazol-5-yl)-1H-pyrrolo[2, 3-b] pyridines for use in the treatment of leukaemias, lymphomas and solid tumors” (MASARYKOVA UNIVERZITA, priority 2018, dated 2022) come the findings set out here.

Series [1] has as its system primary CLL cells. Nature of the series: Cytotoxicity, TMRE flow cytometry viability, primary CLL cells (Example II.1). The format is cell-based. The following applies: Homo sapiens, CLL cell, 6 hours, TMRE positive cells normalized to control, ratio to PF670462, <1 = higher cytotoxicity than PF670462, read-out: Viability of cells, Compound of formula I (100 μM), relative to PF670462 (100 μM), CLL primary cells. In general terms: In flow cytometry, cells or beads pass a laser one at a time.

Series [2] relates to Mino. Nature of the series: Cytotoxicity on panel of cell lines, TMRE viability (Example II.2). In kind it is cell-based. The following applies: Homo sapiens, 24 hours, mean, control = 1, read-out: cell viability relative to control, Mino (MCL). The method, then: (§1) The leukemia and lymphoma-derived cell lines [MEC-1 cell line (derived from chronic lymphocytic leukemia—CLL), Nalm-16 (acute lymphocytic leukemia—ALL), K562 (chronic myeloid leukemia—CML), HL-60 (acute myeloid leukemia—AML), Maver-1 and Mino (mantle cell lymphoma—MCL), BL-41 (Burkitt lymphoma—BL), WSU-NHL (follicular lymphoma—FL), SUDHL (diffuse large B-cell lymphoma—DLBCL)], primary CLL cells and nonmalignant control primary cells were cultured in suspension in flasks under the following conditions: RPMI 1640 medium (Hyclone) supplemented with 10% fetal bovine serum (FBS, Gibco) and 1% penicillin/streptomycin (Life Technologies), 37° C., 5% CO2 and 95% relative humidity, with optimal culture cell density 5×10^6 cells/mL in case of primary cells and 0.5-1×10^6 cells/mL in case of cell lines. The adherent cell lines [A375 (derived from malignant melanoma), MDA-MB-231 and MCF-7 (breast cancer), MIA-PA-CA and PANC1 (pancreatic cancer), PC3 (prostate cancer), OVCAR4 (ovarian cancer) and HEPG2 (hepatocellular carcinoma)] were cultured on plates under the same conditions using RPMI1640 or DMEM medium (Gibco) according to instructions provided by the distributor (DSMZ/ATCC).
(§2) The tested cell lines were incubated with inhibitors at 30 μM concentration or corresponding amount of solvent (DMSO, Sigma Aldrich) in standard culture conditions, seeded as 10^5 cells/500 μl per well in a 24-well plate. Experiments were performed in technical duplicates and 2-3 biological repetitions per cell line. Viability of cells was assessed after 24 hours.
(§3) Relative values are presented as a mean value, showing ratio to the effect of control. Relative value <1=lower viability than control condition.

Series [3] relates to Maver1. Described as above. The format is cell-based. The following applies: Homo sapiens, 24 hours, mean, control = 1, read-out: cell viability relative to control, Maver1 (MCL). The method, then:
as §1, §2, §3

In series [4] the test system is BL-41. The description is as above. The format is cell-based. Conditions: Homo sapiens, 24 hours, mean, control = 1, read-out: cell viability relative to control, BL-41 (BL). The method, then: as §1, §2, §3
Series [5] relates to Nalm16. Described as above. The format is cell-based. The following applies: 24 hours, mean, control = 1, read-out: cell viability relative to control, Nalm16 (ALL). The method, then:
as §1, §2, §3

Series [6] relates to primary CLL. The series is described as above. The format is cell-based. The following applies: Homo sapiens, 24 hours, mean, control = 1, read-out: cell viability relative to control, primary CLL. As for the experimental part: as §1, §2, §3
Series [7] has as its system OVCAR4. Described as above. In kind it is cell-based. Conditions: Homo sapiens, OVCAR-4, 24 hours, mean, control = 1, read-out: cell viability relative to control, OVCAR4 (ovarian cancer). As for the experimental part:
as §1, §2, §3

Series [8] has as its system HEPG2. The description is as above. The format is cell-based. The following applies: Homo sapiens, 24 hours, mean, control = 1, read-out: cell viability relative to control, HEPG2 (hepatocellular carcinoma). The method, then: as §1, §2, §3
Series [9] has as its system Maver-1 cells (mantle cell lymphoma). Nature of the series: Cytotoxicity, TMRE flow cytometry viability, Maver-1 cells (Example II.1). In kind it is cell-based. The following applies: Homo sapiens, Maver1, 24 hours, TMRE positive cells normalized to control, ratio to PF670462, <1 = higher cytotoxicity than PF670462, read-out: Viability of cells, Compound of formula I (100 μM), relative to PF670462 (100 μM), Maver-1 cells (mantle cell lymphoma).

The subject of series [10] is MCF-7. Nature of the series: Cytotoxicity on panel of cell lines, TMRE viability (Example II.2). In kind it is cell-based. The following applies: Homo sapiens, MCF7, 24 hours, mean, control = 1, read-out: cell viability relative to control, MCF-7 (breast cancer). The method, then: as §1, §2, §3
In series [11] the test system is WSU-NHL. Described as above. In kind it is cell-based. Conditions: Homo sapiens, 24 hours, mean, control = 1, read-out: cell viability relative to control, WSU-NHL (FL). As for the experimental part:
as §1, §2, §3

The subject of series [12] is A375. The description is as above. In kind it is cell-based. Conditions: Homo sapiens, A-375, 24 hours, mean, control = 1, read-out: cell viability relative to control, A375 (melanoma). The method, then: as §1, §2, §3
Series [13] concerns MIA-PA-CA. Described as above. The format is cell-based. Conditions: Homo sapiens, MIA PaCa-2, 24 hours, mean, control = 1, read-out: cell viability relative to control, MIA-PA-CA (pancreatic cancer). As for the experimental part:
as §1, §2, §3

Series [14] in a line: Pharmacokinetic study, oral dosing, plasma concentration by LC-MS/MS (Example II.5). In kind it is in vivo. The following applies: mouse, male Balb/c mice, oral 20 mg/kg as dihydrochloride in saline, free base quantified, below LLOQ designated zero; for concentration at 15 min: read-out: conc. at 15 min; for concentration at 30 min: read-out: conc. at 30 min; for concentration at 60 min: read-out: conc. at 60 min; for concentration at 120 min: read-out: conc. at 120 min; for concentration at 240 min: read-out: conc. at 240 min; for concentration at 600 min: read-out: conc. at 600 min. As for the experimental part:
Male Balb/c mice (10-12 weeks old, body weight 24.1 to 30.8 g and average body weight across all groups 26.8 g, SD=1.7 g) were used in this study. The animals were randomly assigned to the treatment groups before the pharmacokinetic study; all animals were fasted for 4 h before dosing. The time points indicated in Table 4 were set for this pharmacokinetic study. Each of the time point treatment group included 4 animals. There was also control group of 2 animals. The compounds were dosed orally as the corresponding dihydrochlorides dissolved in physiological saline (c=3-4 mg/mL) at the dose of 20 mg/kg.
Mice were injected IP with 2,2,2-tribromoethanol at the dose of 150 mg/kg prior to drawing the blood. Blood collection was performed from the orbital sinus in microtainers containing K2EDTA. Animals were sacrificed by cervical dislocation after the blood samples collection. All samples were immediately processed, flash-frozen and stored at −70° C. until subsequent analysis.
Plasma samples (50 μL) were mixed with 200 μL of internal standard solution. After mixing by pipetting and centrifuging for 4 min at 6,000 rpm, 0.5 μL of each supernatant was injected into LC-MS/MS system.
The analyzed compound (as a dihydrochloride salt) was dissolved in DMSO, and the resulting solution with concentration of 2 mg/mL was used for calibration standards preparation (stock solution). A series of calibration standards was prepared by consecutively dilution of stock compound solution with blank mouse plasma to a final concentration of 40 000, 20 000, 10 000, 5 000, 2 500, 1000, 500, 250, 100, 50, and 20 ng/mL. Standard plasma samples (50 μL) were mixed with 200 μL of internal standard. After mixing by pipetting and centrifuging for 4 min at 6,000 rpm, 0.5 μL of each supernatant was injected into LC-MS/MS system. Signal corresponding to the free base was analyzed and quantified (Table 4).
The regression analysis of the analyzed compound was performed by plotting the peak area ratio (y-axis) against the compound concentration in calibration standards (x-axis, ng/mL).
The concentrations of the analyzed compound in plasma samples below the lower limit of quantitation (LLOQ—5 ng/mL to 20 ng/mL) were designated as zero.

Series [15] has as its system HL60. Briefly: Cytotoxicity on panel of cell lines, TMRE viability (Example II.2). The format is cell-based. The following applies: Homo sapiens, HL-60, 24 hours, mean, control = 1, read-out: cell viability relative to control, HL60 (AML). As for the experimental part:
as §1, §2, §3

Series [16] has as its system MEC-1. The series is described as above. The format is cell-based. The following applies: Homo sapiens, MEC1, 24 hours, mean, control = 1, read-out: cell viability relative to control, MEC-1 (CLL). The method, then: as §1, §2, §3
Series [17] has as its system SUDHL. The series is described as above. In kind it is cell-based. The following applies: 24 hours, mean, control = 1, read-out: cell viability relative to control, SUDHL (DLBCL). The method, then:
as §1, §2, §3

For orientation: viability means a per cent measure of how many cells are alive, often set against a control. As to `COCCCn1cnc(-c2ccc(F)cc2)c1-c1ccnc2[nH]ccc12` [Preparative Example 24, 4-(4-(4-fluorophenyl)-1-(3-methoxypropyl)-1H-imidazol-5-yl)-1H-pyrrolo[2,3-b]pyridine], in [1], the viability at 100 µM came out at 30%. Moreover, the viability at 30 µM in series [2] came out at 80%; in series [3], 72%; in [4] it was 76%; in [5], 75%; in [6], 85%.

As to `Fc1ccc(-c2ncn(CC3CCCO3)c2-c2ccnc3[nH]ccc23)cc1` (stereo not drawn) [Preparative Example 27, 4-(4-(4-fluorophenyl)-1-((tetrahydrofuran-2-yl)methyl)-1H-imidazol-5-yl)-1H-pyrrolo[2,3-b]pyridine], the viability at 30 µM in series [7] was found to be 84%; in [8], 85%; in series [3] it was 78%.

Consider `CS(=O)(=O)N[C@H]1CC[C@@H](n2cnc(-c3ccc(F)cc3)c2-c2ccnc3[nH]ccc23)CC1` [Preparative Example 74, N-(cis-4-(4-(4-fluorophenyl)-5-(1H-pyrrolo[2,3-b]pyridin-4-yl)-1H-imidazol-1-yl)cyclohexyl)methanesulfonamide], for which the viability at 100 µM was determined as 46% in series [9] and 73% in series [1]. In addition, the viability at 30 µM was determined as 72% in [10], 84% in series [3] and 78% in series [5].

As for `Fc1ccc(-c2ncn(Cc3ccco3)c2-c2ccnc3[nH]ccc23)cc1` [Preparative Example 81, 4-(4-(4-fluorophenyl)-1-(furan-2-ylmethyl)-1H-imidazol-5-yl)-1H-pyrrolo[2,3-b]pyridine], the results for the viability at 100 µM in series [9] and in [1] were 10% and 60%, respectively. The viability at 30 µM was 68% in series [10]; 68% in series [11]; 37% in [2]; 58% in [8]; 51% in series [3]; 77% in series [6].

`Cn1cnc(Cn2cnc(-c3ccc(F)cc3)c2-c2ccnc3[nH]ccc23)n1` [Preparative Example 106, 4-(4-(4-fluorophenyl)-1-((1-methyl-1H-1,2,4-triazol-3-yl)methyl)-1H-imidazol-5-yl)-1H-pyrrolo[2,3-b]pyridine]: in series [9], the viability at 100 µM came to 7%. In addition, the viability at 30 µM was 65% in [10]; 82% in [11]; 89% in series [7]; 85% in series [2]; 24% in series [8]; 54% in series [3]. The viability at 30 µM in [12] was 79%; in series [13], 68%.

As to `CN(C)[C@H]1C[C@@H](n2cnc(-c3ccc(F)cc3)c2-c2ccnc3[nH]ccc23)C1` [Preparative Example 123, (1R,3s)-3-(4-(4-fluorophenyl)-5-(1H-pyrrolo[2,3-b]pyridin-4-yl)-1H-imidazol-1-yl)-N,N-dimethylcyclobutan-1-amine], in [9], the viability at 100 µM was 78%. Also, the viability at 100 µM in series [1] amounted to 58%. In addition, in series [14], the concentration at 15 min is 1350 nM, the concentration at 30 min was 920 nM, the concentration at 60 min was found to be 520 nM and the concentration at 120 min is 130 nM. In series [14], the concentration at 240 min is 0 nM and the concentration at 600 min came to 0 nM.

Consider `CN1CCC(F)(Cn2cnc(-c3ccc(F)cc3)c2-c2ccnc3[nH]ccc23)CC1` [Preparative Example 126, 4-(1-((4-fluoro-1-methylpiperidin-4-yl)methyl)-4-(4-fluorophenyl)-1H-imidazol-5-yl)-1H-pyrrolo[2,3-b]pyridine], for which the viability at 100 µM in [9] turned out to be 71%. Further, the viability at 100 µM in [1] came to 64%. In series [14], the concentration at 15 min amounted to 2380 nM, the concentration at 30 min amounted to 1830 nM, the concentration at 60 min turned out to be 840 nM and the concentration at 120 min was 760 nM. Also, in series [14], the concentration at 240 min is 380 nM and the concentration at 600 min was determined as 0 nM.

`Fc1ccc(-c2ncn(C3CCCCC3)c2-c2ccnc3[nH]ccc23)cc1F` [Preparative Example 173]: the figures for the viability at 100 µM in series [9] and in series [1] were 1% and 2%, respectively. The viability at 30 µM in series [10] amounted to 52%; in series [11], 16%; in series [2], 1%; in series [15], 77%; in series [8], 58%; in series [16] it was 9%. Besides, the viability at 30 µM was 0% in series [3]; 3% in [17]; 5% in [4]; 62% in series [6]; 74% in series [13].
